Assay results from patent publication US4246340A, “Method and reagent for bioluminiscence” (LKB-Producter AB, priority 1979, dated 1981).

How the values were obtained:
[1] = biological target: T1, luciferase (Photinus pyralis, UniProt P08659); settings: inhibition of luciferase; literature value; cited from earlier work
[2] = biological target: T1, luciferase; assay: Inhibition of the luciferase reaction (literature Ki values); format: biochemical; settings: if 10^-6 M ATP generated 10^-6 M AMP; estimated from Ki; 1 µM
Text: To the extent free AMP and free oxluciferin are formed in the reaction it could also be of interest to study whether this would affect the product inhibition. […] Consequently it may under certain conditions be important to counteract the effect of the generation of free oxyluciferin. The addition of D-luciferin analog makes the initial inhibition of the luciferase so big that the additional inhibition from the oxyluciferin, which is continuously formed during the reaction, will be negligible. The addition of inhibiting concentrations of a D-luciferin analog will thus stabilize the light level.

T1 sequence (P08659 whole entry): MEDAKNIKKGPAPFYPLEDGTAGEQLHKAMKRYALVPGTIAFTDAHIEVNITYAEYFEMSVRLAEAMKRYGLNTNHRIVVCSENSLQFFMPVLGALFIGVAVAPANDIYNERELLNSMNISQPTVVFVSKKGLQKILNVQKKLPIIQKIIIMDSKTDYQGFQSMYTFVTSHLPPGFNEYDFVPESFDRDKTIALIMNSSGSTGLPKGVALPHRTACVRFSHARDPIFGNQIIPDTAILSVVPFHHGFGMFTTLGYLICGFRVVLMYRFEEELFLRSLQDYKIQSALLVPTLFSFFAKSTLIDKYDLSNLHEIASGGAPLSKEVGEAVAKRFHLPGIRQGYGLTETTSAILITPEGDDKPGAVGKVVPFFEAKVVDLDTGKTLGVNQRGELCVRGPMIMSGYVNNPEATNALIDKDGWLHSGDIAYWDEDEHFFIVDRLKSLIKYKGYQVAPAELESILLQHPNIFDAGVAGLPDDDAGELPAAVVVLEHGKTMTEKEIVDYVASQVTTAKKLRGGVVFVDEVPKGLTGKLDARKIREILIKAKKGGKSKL

For `Nc1ncnc2c1ncn2[C@@H]1O[C@H](COP(=O)(O)O)[C@@H](O)[C@H]1O` [AMP, adenosinel monophosphate], the Ki [1] is given as 240 µM and the “effect on the luciferase activity” value [2] is given as “less than 0.5%”.

For `O=C1CSC(c2nc3ccc(O)cc3s2)=N1` [oxyluciferin], the Ki [1] is listed as 0.23 µM.
